The target in series [1] is T1, MAGL (Mus musculus, UniProt O35678).
T1 construct: brain proteomes were prepared and analyzed according to previously established methods; from tissue; host or cells: brain of wild-type C57Bl/6J mice
T1 sequence (O35678 1-303): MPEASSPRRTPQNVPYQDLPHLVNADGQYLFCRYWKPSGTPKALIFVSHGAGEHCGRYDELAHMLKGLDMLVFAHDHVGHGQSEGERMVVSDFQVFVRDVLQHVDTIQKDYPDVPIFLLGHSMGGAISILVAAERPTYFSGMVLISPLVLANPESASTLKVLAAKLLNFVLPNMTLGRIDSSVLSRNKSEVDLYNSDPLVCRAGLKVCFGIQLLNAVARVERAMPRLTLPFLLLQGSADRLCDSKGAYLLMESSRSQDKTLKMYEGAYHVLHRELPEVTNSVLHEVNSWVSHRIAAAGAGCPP
The series is described as follows: In vivo MAGL inhibition in mouse brain proteomes after oral gavage. Conditions: 5 mg/kg oral gavage, 4 h after administration, read-out: MAGL % inh. 5 mg/kg (mouse). The method, then: Inhibitors were administered to wild-type C57B1/6J by oral gavage in a vehicle of polyethylene glycol. Each animal was sacrificed 4 h following administration and brain proteomes were prepared and analyzed according to previously established methods (See Niphakis, M. J., et al. (2011) ACS Chem. Neurosci. and Long, J. Z., et al. Nat. Chem. Biol. 5:37-44).

Series [2] is described as follows: In vitro human hepatocyte stability. In kind it is in vitro ADME. Conditions: cryopreserved human hepatocytes (pooled donor), human hepatocytes 0.5×10^6 cells/mL, read-out: Scaled-up unbound CLint. The method, then:
The metabolic stability of test articles (1 μM) in commercially sourced, pooled donor, cryopreserved human hepatocytes (0.5×10^6 cells/mL) was determined in duplicate. The CLint reactions (250 μL) were initiated by addition of test compound. Aliquots (25 μL) were taken at 0, 15, 30, 45, 60, 90, 120 and 240 minutes and then protein crashed with ice-cold acetonitrile containing internal standard then centrifuged (3220 g for 25 minutes). Supernatant was used for LC-MS/MS analysis. The in vitro half-life (in vitro t1/2) was determined from the slope value: in vitro t1/2=−0.693/k. Conversion of the in vitro t1/2 (in min) into the scale-up unbound intrinsic clearance (Scaled-up unbound CLint, in mL/min/kg) was done using the following equation (mean of duplicate determinations), with data shown in Table 5: Scaled-up unbound CLint=kV/N×scaling factor. V=incubation volume (0.25 mL); N=number of hepatocytes per well ([…]). Scaling factors for in vivo intrinsic clearance prediction are listed below: […]

The nature of series [3]: Kinetic solubility in PBS. It is filed as physicochemical. To be noted: aqueous buffer, kinetic from dmso stock. The method, then: The kinetic solubility of test articles was determined in PBS at pH 2.0 and pH 7.4 in duplicate. A stock solution of test compound in DMSO (10 mM) was incubated at RT for 2 hours with shaking at 1,100 RPM. The sample was then filtered using a vacuum manifold, diluted, and analyzed by LC-MS/MS. Chromatographic conditions: Phenomenex Synergi 4μ Hydro-PR 80A column (2.0×30 mm) coupled with pre-guard column; mobile phase=0.1% formic acid in acetonitrile and 0.1% formic acid in water; flowrate=0.65 mL/min; column temperature=40° C.; injection volume: 3 μL.
Mass conditions: Turbo spray ion source; ESI ionization model; MRM scan type; Collison gas=6 L/min; Curtain gas=30 L/min; Nebulize gas=50 L/min; Auxiliary gas=50 L/min; Temperature=500 degrees C.; Ion spray voltage=+5500 v (positive MRM).
The filtered solution was analyzed and quantified against a standard of known concentration in DMSO using UPLC coupled with mass spectral peak identification and quantitation. Solubility values of the test articles were calculated using Microsoft Excel as follows (DF is the dilution factor): […]

Series [4] addresses T2, MAGL (Homo sapiens, UniProt Q99685).
T2 construct: PC3 human cell membrane proteomes; endogenous in cells; host or cells: PC3 human cells (membrane proteome)
T2 sequence (Q99685 1-303): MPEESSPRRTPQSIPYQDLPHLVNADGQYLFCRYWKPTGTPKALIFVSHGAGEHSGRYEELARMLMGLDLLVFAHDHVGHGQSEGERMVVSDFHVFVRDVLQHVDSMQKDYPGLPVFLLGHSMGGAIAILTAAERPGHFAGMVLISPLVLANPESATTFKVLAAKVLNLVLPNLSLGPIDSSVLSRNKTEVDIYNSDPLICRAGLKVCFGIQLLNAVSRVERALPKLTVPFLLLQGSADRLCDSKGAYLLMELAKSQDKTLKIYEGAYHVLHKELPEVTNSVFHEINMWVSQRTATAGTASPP
As to the kind of experiment: In vitro competitive activity-based protein profiling (PC3 human cell membrane proteomes). It is filed as biochemical. On the procedure:
PC3 human cell membrane proteomes (50 µL, 2.0 mg/mL total protein concentration) were preincubated with varying concentrations of inhibitors at 37° C. After 30 min, the ABPP probe JW912-Bodipy (1.0 µL, 50 µM in DMSO) was added and the mixture was incubated for 30 min at room temperature. Reactions were quenched with SDS loading buffer (15 μL-4×) and run on SDS-PAGE. Following gel imaging, serine hydrolase activity was determined by measuring fluorescent intensity of gel bands corresponding to MAGL using ImageJ 1.43u software. Intensities were converted to percent enzyme activity by normalizing to DMSO controls. IC50 values were determined by fitting percent enzyme activities to a non-linear regression, 4-parameter, sigmoidal dose response function in Prism GraphPad.

Setting [5] is: PBS pH 2.0, RT, read-out: pH 2 Solubility (kinetic).
The mark [6] stands for this setting: PBS pH 7.4, RT, read-out: pH 7.4 Solubility (kinetic).

One may read the CLint scaled as a measure of how fast metabolising enzymes remove a compound, apart from limits set by blood flow. For orientation: kinetic solubility means solubility judged after dilution from a stock solution rather than from solid.

Read-outs that look alike come from different tables or passages of the source.

`O=C(Nc1cncc(F)c1)C1CC12CCN(C(=O)OC(C(F)(F)F)C(F)(F)F)CC2` (single isomer, unassigned) [Example 40, 1,1,1,3,3,3-hexafluoropropan-2-yl (R or S)-1-((5-fluoropyridin-3-yl)carbamoyl)-6-azaspiro[2.5]octane-6-carboxylate]: the inhibition at 5 mg/kg at MAGL [1] worked out at 100%. Moreover, the CLint scaled at 1 μM in series [2] is 43.2 mL/min/kg. Besides, the solubility (kinetic) at 2 h in series [3] (setting [5]) stood at 163 µM; in series [3] (setting [6]), 100 µM. Moreover, at MAGL [4], the “MAGL % inh. 1 µM (human PC3)” value was determined as 100%.

Turning to `O=C(Nc1ccncc1)C1CC12CCN(C(=O)OC(C(F)(F)F)C(F)(F)F)CC2` (single isomer, unassigned) [Example 24, 1,1,1,3,3,3-hexafluoropropan-2-yl (R or S)-1-(pyridin-4-ylcarbamoyl)-6-azaspiro[2.5]octane-6-carboxylate], at MAGL [1], the inhibition at 5 mg/kg came to 90%. The CLint scaled at 1 μM in series [2] came to 11.9 mL/min/kg. Also, the kinetic solubility at 2 h in series [3] (setting [6]) was determined as 197 µM.

Turning to `Cn1nccc1NC(=O)C1CC12CCN(C(=O)OC(C(F)(F)F)C(F)(F)F)CC2` (single isomer, unassigned) [Example 135, 1,1,1,3,3,3-hexafluoropropan-2-yl (R or S)-1-((1-methyl-1H-pyrazol-5-yl)carbamoyl)-6-azaspiro[2.5]octane-6-carboxylate], the inhibition at 5 mg/kg on MAGL [1] came out at 100%. In series [2], the CLint scaled at 1 μM is 16.8 mL/min/kg.

As for `O=C(Nc1nccs1)C1CC12CCN(C(=O)OC(C(F)(F)F)C(F)(F)F)CC2` (single isomer, unassigned) [Example 138, 1,1,1,3,3,3-hexafluoropropan-2-yl (R or S)-1-(thiazol-2-ylcarbamoyl)-6-azaspiro[2.5]octane-6-carboxylate], the inhibition at 5 mg/kg on MAGL [1] worked out at 75%. In addition, the intrinsic clearance (CLint scaled) at 1 μM in series [2] came to 40.5 mL/min/kg.

In the case of `O=C(NCC1CCOCC1)[C@H]1CC12CCN(C(=O)OC(C(F)(F)F)C(F)(F)F)CC2` (single isomer, unassigned) [Example 117], the inhibition at 5 mg/kg on MAGL [1] is 100%. The CLint scaled at 1 μM in series [2] was 20.6 mL/min/kg. In addition, in series [3] (setting [6]), the solubility (kinetic) at 2 h came to 251 µM.

Turning to `Cn1ccc(NC(=O)C2CC23CCN(C(=O)OC(C(F)(F)F)C(F)(F)F)CC3)n1` (single isomer, unassigned) [Example 127, 1,1,1,3,3,3-hexafluoropropan-2-yl (R or S)-1-((1-methyl-1H-pyrazol-3-yl)carbamoyl)-6-azaspiro[2.5]octane-6-carboxylate], at MAGL [1], the inhibition at 5 mg/kg was found to be 75%. The CLint scaled at 1 μM in series [2] stood at 9.51 mL/min/kg. For the same compound, the solubility (kinetic) at 2 h turned out to be 275 µM in series [3] (setting [5]) and 292 µM in series [3] (setting [6]).

As for `O=C(Nc1cncnc1)C1CC12CCN(C(=O)OC(C(F)(F)F)C(F)(F)F)CC2` (single isomer, unassigned) [Example 96, 1,1,1,3,3,3-hexafluoropropan-2-yl (R or S)-1-(pyrimidin-5-ylcarbamoyl)-6-azaspiro[2.5]octane-6-carboxylate], the inhibition at 5 mg/kg on MAGL [1] is 100%. For the same compound, in series [2], the CLint scaled at 1 μM is 17.1 mL/min/kg. The kinetic solubility at 2 h in series [3] (setting [6]) is 237 µM.

Regarding `Cc1cnc(NC(=O)C2CC23CCN(C(=O)OC(C(F)(F)F)C(F)(F)F)CC3)cn1` (single isomer, unassigned) [Example 112, 1,1,1,3,3,3-hexafluoropropan-2-yl (R or S)-1-((5-methylpyrazin-2-yl)carbamoyl)-6-azaspiro[2.5]octane-6-carboxylate], the inhibition at 5 mg/kg at MAGL [1] came out at 75%. Further, the CLint scaled at 1 μM in series [2] was found to be 9.59 mL/min/kg. Also, the solubility (kinetic) at 2 h in series [3] (setting [5]) worked out at 185 µM; in series [3] (setting [6]), 109 µM.

As to `CP(C)(=O)c1ccc(NC(=O)C2CC23CCN(C(=O)OC(C(F)(F)F)C(F)(F)F)CC3)cn1` (single isomer, unassigned) [Example 20, 1,1,1,3,3,3-hexafluoropropan-2-yl (R or S)-1-((6-(dimethylphosphoryl)pyridin-3-yl)carbamoyl)-6-azaspiro[2.5]octane-6-carboxylate], on MAGL [1], the inhibition at 5 mg/kg was found to be 0%. For the same compound, in series [2], the CLint scaled at 1 μM worked out at 0.85 mL/min/kg. Further, the solubility (kinetic) at 2 h in series [3] (setting [6]) stood at 310 µM.

As for `O=C(Nc1cncs1)C1CC12CCN(C(=O)OC(C(F)(F)F)C(F)(F)F)CC2` (single isomer, unassigned) [Example 129, 1,1,1,3,3,3-hexafluoropropan-2-yl (R or S)-1-(thiazol-5-ylcarbamoyl)-6-azaspiro[2.5]octane-6-carboxylate], at MAGL [1], the inhibition at 5 mg/kg is 50%. The intrinsic clearance (CLint scaled) at 1 μM in series [2] is 53.6 mL/min/kg.

The record behind these values is US11434222B2, “MAGL inhibitors” (H. LUNDBECK A/S, priority 2020, dated 2022).
